Measurements published in patent US9987276B2 (Celgene CAR LLC, priority 2008, dated 2018).
Entries after “also recorded” stand apart in the source; their conditions may differ.

Columns and labels:
TEC kinase = TEC kinase (Homo sapiens (Human), UniProt P42680); assay: Mass spectrometry for TEC kinase (tryptic digest); type: binding; settings: 3 hrs at 10× excess
Description: TEC kinase (45 pmols; Invitrogen) was incubated with (I-2) (450 pmols) for 3 hrs at 10× excess prior to tryptic digestion. Iodoacetamide was used as the alkylating agent after compound incubation. […] For tryptic digests a 5 ul aliquot (7.5 pmols) was diluted with 15 ul of 0.1% TFA prior to micro C18 Zip Tipping directly onto the MALDI target using alpha cyano-4-hydroxy cinnamic acid as the matrix (5 mg/ml in 0.1% TFA:Acetonitrile 50:50).
As depicted in FIG. 6, the expected peptide ([…]) to be modified was immediately evident after reaction with I-2 (MI mass of 359.17 Da) at MH+ of 1294.72. The peptide was also quite evident in the control sample as modified by Iodacetamide at MH+ of 992.56. […] There was no evidence of other modified peptides.
The fragmentation spectra of the 360.17 peak did show diagnostic fragments that were apparent in the PSD spectra of the modified peptide at 1294.72 (See FIG. 6).
To further verify the presence of the modified peptides, both the iodoacetamide labeled (992.56) and I-2 labeled (1294.72) were subjected to PSD (MS/MS) analysis. After a database search of the NCBI nr Homo sapien database using Mascot MS/MS Ion Search program the top match was the expected peptide in both cases.
For tryptic digests the instrument was set in Reflectron mode with a pulsed extraction setting of 2200. Calibration was done using the Laser Biolabs Pep Mix standard ([…], 1296.69, 1672.92, 2093.09, 2465.20). For CID/PSD analysis the peptide was selected using cursors to set ion gate timing and fragmentation occurred at a laser power about 20% higher and He was used as the collision gas for CID. Calibration for fragments was done using the P14R fragmentation calibration for the Curved field Reflectron.
TEC kinase (45 pmols; Invitrogen) was incubated with (I-4) (450 pmols) for 3 hrs at 10× excess prior to tryptic digestion. Iodoacetamide was used as the alkylating agent after compound incubation. […]

ITK = ITK (Homo sapiens (Human), UniProt Q08881); assay: Omnia assay for potency assessment against active forms of ITK kinase; type: biochemical; settings: [ITK]=10 nM, [ATP]=25, [Y6-Sox]=10 μM; read-out: ITK Inhibition
Description: [ITK]=10 nM, [ATP]=25 [Y6-Sox]=10 μM (ATP KMapp=33 μM).

BTK = BTK (Homo sapiens (Human), UniProt Q06187); assay: BTK occupancy from in vitro samples by ELISA (Ramos cells); type: cell-based; settings: ELISA with probe I-215
Description: In order to determine the amount of free BTK in cell or tissue lysates, an ELISA protocol was employed that utilizes a biotinylated probe compound that binds only to free, unoccupied BTK. The conjugated biotin is captured on a streptavidin-coated ELISA plate and detected with a mouse anti-BTK antibody (Becton Dickinson, Franklin Lakes, N.J., USA) and a secondary goat anti-mouse HRP antibody (Zymed, South San Francisco, Calif., USA).
All samples were prepared with equal concentrations of Biorad lysis buffer (Hercules, Calif., USA), 0.5% bovine serum albumin in PBS with 0.05% Tween-20 to give a final concentration of 1 μM I-215. Samples were incubated in a mixing plate for 1 hr at room temperature while shaking to allow probe compound I-215 to bind to free BTK. After incubation with I-215, samples were added to a washed, streptavidin-coated ELISA plate (Pierce, Rockford, Ill., USA) and incubated for 1 hr at room temperature while shaking. The plate was then washed with PBS containing 0.05% Tween-20 using an automatic plate washer. Anti-BTK antibody was prepared at 1:1000 dilution in 0.5% BSA in PBS (0.05% Tween-20) and added to the ELISA plate. The plate was incubated for 1 hr at room temperature while shaking. The plate was washed as described above and the secondary HRP antibody was prepared at 1:5000 dilution in 0.5% BSA in PBS (0.05% Tween-20). The plate was incubated and washed as described above. TMB was added to the plate, and OD650 was monitored until reaching 1 OD unit. The reaction was then stopped with addition of H2SO4. The plate was analyzed using Gen 5 software, and a 4 Parameter Logistic curve was employed to quantitate samples. Recombinant BTK (Invitrogen, Carlsbad, Calif., USA) was used for the standard curve.
A concentration designated as “A” is greater than 1 nM; a concentration designated as “B” is greater than 10 nM; and a concentration designated as “C” is greater than 50 nM.

PG-PS arthritis model = type: in vivo; settings: female Lewis rats, oral gavage daily through day 22
Description: On day 0, female Lewis rats received an intraperitoneal (IP) bolus of peptidoglycan-polysaccharide (PG-PS) in an amount of 15 μg/g rat body weight. Baseline control rats received an IP bolus of PBS. The vehicle and treatment groups were dosed via oral gavage just prior to PG-PS administration. Treatment with vehicle and compound continued each day through day 22. Maximal lateral ankle width measurements of both rear limbs were collected with a caliper throughout the study. On day 23, study was terminated and the final change in ankle swelling was calculated and compared to vehicle controls.

Sequence of TEC kinase (P42680 whole entry): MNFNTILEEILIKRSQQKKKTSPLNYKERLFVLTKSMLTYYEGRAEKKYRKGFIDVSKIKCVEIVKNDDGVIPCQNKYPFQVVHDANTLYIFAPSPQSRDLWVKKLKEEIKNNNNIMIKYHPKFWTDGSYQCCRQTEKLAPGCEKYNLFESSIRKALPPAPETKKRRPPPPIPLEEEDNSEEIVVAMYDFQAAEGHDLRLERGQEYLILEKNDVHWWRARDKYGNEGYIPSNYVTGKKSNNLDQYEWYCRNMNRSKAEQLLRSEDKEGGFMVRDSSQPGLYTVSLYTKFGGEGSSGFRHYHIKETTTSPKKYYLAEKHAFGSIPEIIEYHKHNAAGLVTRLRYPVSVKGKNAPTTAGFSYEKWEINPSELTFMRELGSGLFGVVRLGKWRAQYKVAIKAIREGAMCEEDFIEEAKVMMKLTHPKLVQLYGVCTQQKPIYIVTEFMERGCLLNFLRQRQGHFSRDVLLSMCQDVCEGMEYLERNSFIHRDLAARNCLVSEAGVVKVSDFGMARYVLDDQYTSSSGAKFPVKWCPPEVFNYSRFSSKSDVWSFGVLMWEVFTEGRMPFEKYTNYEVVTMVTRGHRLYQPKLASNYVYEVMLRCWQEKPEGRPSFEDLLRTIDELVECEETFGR
Sequence of BTK (Q06187 whole entry): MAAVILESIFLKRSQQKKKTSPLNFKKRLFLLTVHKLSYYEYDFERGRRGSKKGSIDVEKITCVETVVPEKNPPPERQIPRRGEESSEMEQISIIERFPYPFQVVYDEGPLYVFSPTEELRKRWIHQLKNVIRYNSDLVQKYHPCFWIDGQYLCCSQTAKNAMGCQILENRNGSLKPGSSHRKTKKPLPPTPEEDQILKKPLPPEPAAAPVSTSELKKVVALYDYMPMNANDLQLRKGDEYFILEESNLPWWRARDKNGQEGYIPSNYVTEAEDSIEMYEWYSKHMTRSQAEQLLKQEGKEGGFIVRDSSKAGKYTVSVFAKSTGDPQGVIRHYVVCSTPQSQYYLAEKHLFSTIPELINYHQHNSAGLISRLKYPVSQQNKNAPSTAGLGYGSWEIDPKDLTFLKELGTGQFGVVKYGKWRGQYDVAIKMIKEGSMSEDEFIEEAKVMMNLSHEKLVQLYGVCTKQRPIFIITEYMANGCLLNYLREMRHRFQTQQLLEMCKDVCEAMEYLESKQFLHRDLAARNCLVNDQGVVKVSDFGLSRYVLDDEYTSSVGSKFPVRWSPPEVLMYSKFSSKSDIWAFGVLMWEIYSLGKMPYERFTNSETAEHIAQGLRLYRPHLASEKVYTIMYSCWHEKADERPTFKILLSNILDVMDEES
Sequence of ITK (Q08881 whole entry): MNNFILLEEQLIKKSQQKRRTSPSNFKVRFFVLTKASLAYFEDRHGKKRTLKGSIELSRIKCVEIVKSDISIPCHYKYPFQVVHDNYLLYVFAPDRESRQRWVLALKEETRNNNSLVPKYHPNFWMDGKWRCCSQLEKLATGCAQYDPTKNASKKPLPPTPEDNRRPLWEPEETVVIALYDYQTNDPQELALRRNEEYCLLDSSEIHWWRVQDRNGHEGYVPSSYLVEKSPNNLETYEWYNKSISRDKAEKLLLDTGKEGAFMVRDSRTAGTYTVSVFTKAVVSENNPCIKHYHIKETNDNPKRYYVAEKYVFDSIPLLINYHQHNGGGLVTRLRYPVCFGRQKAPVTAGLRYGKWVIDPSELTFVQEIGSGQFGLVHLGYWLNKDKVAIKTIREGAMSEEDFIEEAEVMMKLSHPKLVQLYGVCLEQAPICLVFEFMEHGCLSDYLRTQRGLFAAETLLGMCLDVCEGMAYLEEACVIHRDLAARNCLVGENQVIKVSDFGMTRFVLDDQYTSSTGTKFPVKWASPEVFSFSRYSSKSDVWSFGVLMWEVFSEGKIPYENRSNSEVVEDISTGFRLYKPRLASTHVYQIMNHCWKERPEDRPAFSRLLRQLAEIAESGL

For `C=CC(=O)Nc1cccc(Nc2nc(Nc3ccccc3)ncc2C)c1` [Compound I-7, N-(3-(5-methyl-2-(phenylamino)pyrimidin-4-ylamino)phenyl) acrylamide], the “covalent modification of TEC kinase (Cys449, peptide GCLLNFLR) by mass spectrometry” value (TEC kinase) was “reaction was complete; also recorded: covalent modification”, the IC50 (ITK) was under 10 nM and the “>50% occupancy (concentration at which >50% of BTK is occupied)” value (BTK) was “A (greater than 1 nM)”. For the same molecule, the “>90% occupancy (concentration at which >90% of BTK is occupied)” value (BTK) was “B (greater than 10 nM)” and the “% inhibition ankle swelling” value (PG-PS arthritis model) was 77.5%.

In the case of `Cc1cccc(Nc2nc(Nc3cccc(NC(=O)/C=C/CN(C)C)c3)ncc2F)c1` [Compound I-4, (E)-4-(dimethylamino)-N-(3-(5-fluoro-4-(m-tolylamino)pyrimidin-2-ylamino)phenyl)but-2-enamide], the “covalent modification of TEC kinase (Cys449, peptide GCLLNFLR) by mass spectrometry” value (TEC kinase) is reported as “reaction was complete; also recorded: covalent modification” and the IC50 (ITK) is reported as 10 to 100 nM.
